Data reported in PubChem BioAssay AID651703 (Broad Institute, 2012).

Each compound was assayed against Transforming acidic coiled-coil-containing protein 3 (Homo sapiens) (UniProt Q9Y6A5) (assay: ARNT/TACC3 interaction disruptors, potency, confirmation, biochemical, AlphaScreen, cherry-picked samples (AID 651703;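 also: TACC3 partner is the GST-tagged E629A mutant dimer; hits lower the signal meaning they disrupt ARNT binding to TACC3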)). Details: AlphaScreen His-ARNT PAS-B / GST-TACC3 binding, luminescence.
Work on `CN1CCN(c2cc(-c3cc(O)c4ncccc4c3)ccn2)CC1` yielded an AC50 of 1.77 µM.
`Clc1cccc(-c2ccc(CNCc3ccccn3)o2)c1` gave an AC50 of 21.2 µM.
For `O=C(O)c1cc2c(cn1)[nH]c1ccccc12`, the AC50 was 1.8 µM.
With `CN1CCN(C(c2ccccn2)c2cc(Cl)c3cccnc3c2O)CC1` (configuration not stated) the AC50 was 3.98 µM.
In the case of `Nc1[nH]c(=O)nc(Nc2ccccc2)c1N=O`, the AC50 is reported as 21.2 µM.
Compound `O=C(NC[C@H]1[C@@H](c2ccccc2)[C@@H](CO)N1Cc1ccccn1)C1CC1` has an AC50 of 48.4 µM.
`O=C(NN=C(c1ccccc1)c1ccccn1)c1ccccc1` was tested, and the AC50 was 16.9 µM.
`Brc1ccc(-c2nn3c(-c4ccccn4)nnc3s2)o1` gave an AC50 of 9.12 µM.
In the case of `CC(=O)c1cccc(NC(=O)CSc2ccc(-c3ccccn3)nn2)c1`, the AC50 is reported as 3.21 µM.
In the case of `CC1CCCC(C)N1/N=C/c1ccc([N+](=O)[O-])cc1` (configuration not stated), the AC50 is reported as 17 µM.
`C/C=C/c1ccc([C@H]2[C@@H](CO)N(Cc3ccccn3)[C@H]2CNC(=O)CC)cc1` was tested, and the AC50 was 66.7 µM.
For `COc1cc(CCNC2=CC(=O)c3ncccc3C2=O)ccc1O`, the AC50 was 34.8 µM.
`Cc1[nH][nH]c(=O)c1C(c1ccc(-c2ccc(C(=O)O)cc2)o1)c1c(C)[nH][nH]c1=O` was tested, and the AC50 was 64.1 µM.
With `O=C(CSc1ccc(-c2ccccn2)nn1)NC1CCCC1` the AC50 was 2.64 µM.
For `Cn1c(CNc2ccccc2O)nc2ccccc21`, the AC50 was 21.8 µM.
Work on `Cc1cccc(C(=O)Nc2nnc(C3=COCCO3)o2)c1` yielded an AC50 of 12.6 µM.
Compound `O=[N+]([O-])c1cccc(/C=N/Nc2nc(NCc3ccccc3)nc(N3CCOCC3)n2)c1O` has an AC50 of 2.29 µM.
`Cc1ccc(NC(=O)CSc2ccc(-c3ccccn3)nn2)cc1F` showed an AC50 of 3.98 µM.
Compound `Cc1ccsc1C(=O)OCC(=O)Nc1nnc(-c2ccccc2)o1` has an AC50 of 14.4 µM.
`O=c1oc2c3c4c(cc2s1)CCCN4CCC3` was tested, and the AC50 was 26.1 µM.
In the case of `COc1cc(C(=O)NCc2nnc(SCC(=O)Nc3nccs3)o2)cc(OC)c1OC`, the AC50 is reported as 58.8 µM.
Work on `COc1cc(NS(=O)(=O)c2ccc(Nc3nc(-c4ccccn4)cs3)cc2)nc(OC)n1` yielded an AC50 of 17.3 µM.
For `Brc1ccc(OCc2nc(-c3ccccn3)n[nH]2)cc1`, the AC50 was 3.6 µM.
Compound `COc1cc(/C=N/Nc2nn3cnnc3c3ccccc23)ccc1O` has an AC50 of 6.83 µM.
With `Cn1c(-c2ccccc2)cnc1N` the AC50 was 37.5 µM.
With `Cc1cccc(C(=O)Nc2nnc(-c3ccco3)o2)c1` the AC50 was 5.86 µM.
With `COc1ccc(C(=O)Nc2nnc(C3=COCCO3)o2)cc1` the AC50 was 24.9 µM.
`Oc1cc(NCc2ccc(F)cc2)cc2cccnc12` gave an AC50 of 8.9 µM.
Compound `Cc1cc(C)c2nc(C)cc(N/N=C/c3ccc(O)cc3)c2c1` has an AC50 of 37.3 µM.
`O=C(Nc1nnc(SCc2ccc(F)cc2)s1)c1ccccn1` showed an AC50 of 7.06 µM.
With `CCN(CC)c1ccc(/C=N/NC(=O)c2cnccn2)c(O)c1` the AC50 was 11.3 µM.
`Nc1nnc2c(n1)CCCC2` showed an AC50 of 4.63 µM.
`CC(Oc1cccc(Cl)c1)C(=O)Nc1nc(-c2ccccn2)cs1` (configuration not stated) was tested, and the AC50 was 18 µM.
`C/C=C/c1ccc([C@H]2[C@@H](CO)N(Cc3ccccn3)[C@H]2CNC(C)=O)cc1` showed an AC50 of 45.9 µM.
With `C[C@@H](Nc1nc(-c2ccccn2)nnc1-c1ccccc1)c1ccccc1` the AC50 was 0.77 µM.
For `COc1ccc(NC(=O)N[C@@H]2CC[C@@H](CCn3cc(-c4ccccn4)nn3)O[C@H]2CO)cc1`, the AC50 was 28.6 µM.
For `CSCCC(=O)Nc1nc(-c2ccccn2)cs1`, the AC50 was 8.98 µM.
Work on `CCOc1ccc(C2=Nn3c(nnc3-c3ccccn3)SC2)cc1` yielded an AC50 of 20.4 µM.
Compound `Cc1ncc(CO)c(/C=N/NC(=O)c2cc3c(s2)CCCC3)c1O` has an AC50 of 11.3 µM.
`C[C@]12CC[C@H](O)CC1=CCC1C2CC[C@@]2(C)C1CC[C@@H]2NC(=O)[C@@H](N)Cc1cnc[nH]1` (some centres not stated) gave an AC50 of 28.3 µM.
`COC(=O)c1ccc(C(=O)O)nc1` gave an AC50 of 32.8 µM.
`c1ccc(-c2nnc(-c3ccccn3)nc2N2CCC(C3CCCCC3)C2)cc1` (configuration not stated) showed an AC50 of 2.68 µM.
Compound `O=C(N[C@@H]1CC[C@@H](CCn2cc(-c3ccccn3)nn2)O[C@@H]1CO)c1ccncc1` has an AC50 of 10.3 µM.
In the case of `c1ccc(N=Nc2ccc3cccccc2-3)cc1`, the AC50 is reported as 1.68 µM.
Compound `c1ccc(-c2cn(C[C@H]3CC[C@@H]([C@@H]4CC[C@H](Cn5cc(-c6ccccn6)nn5)O4)O3)nn2)nc1` has an AC50 of 0.659 µM.
For `CCCCCOc1ccc(NC(=O)CSc2cccc3cccnc23)cc1`, the AC50 was 9.17 µM.
Work on `O=C(N[C@H]1CC[C@H](CCn2cc(-c3ccccn3)nn2)O[C@@H]1CO)c1ccc(F)cc1` yielded an AC50 of 23.1 µM.
`O=C(CSc1ccc(-c2ccccn2)nn1)Nc1cccc(F)c1` was tested, and the AC50 was 1.16 µM.
`O=C(CC(=O)N/N=C/c1ccccc1O)NCc1cccnc1` gave an AC50 of 32.8 µM.
Work on `c1ccc(-c2nn[nH]n2)nc1` yielded an AC50 of 5.22 µM.
`CCOC(=O)c1c(OCC)[nH]c2c1cc(O)c1ccccc12` showed an AC50 of 56.9 µM.
`CCN(CC)S(=O)(=O)c1cccc(C(=O)N/N=C/c2ccc(O)c(O)c2O)c1` was tested, and the AC50 was 4.5 µM.
For `O=C(Nc1nnc(C2CC2)o1)c1ccc(S(=O)(=O)N2CCCCC2)cc1`, the AC50 was 18.4 µM.
Work on `N#CC1=C(N)Oc2c(ccc3cccnc23)C1c1cccnc1` (configuration not stated) yielded an AC50 of 7.36 µM.
Work on `O=C(Nc1ccccc1C(=O)Nc1ccccc1C(=O)O)c1ccccc1` yielded an AC50 of 65.3 µM.
For `O=S(=O)(N[C@@H]1CC[C@H](CCn2cc(-c3ccccn3)nn2)O[C@H]1CO)c1cccc(Cl)c1`, the AC50 was 22 µM.
`O=S(=O)(N[C@@H]1CC[C@H](CCn2cc(-c3ccccn3)nn2)O[C@@H]1CO)c1cccc(F)c1` showed an AC50 of 29.1 µM.
